# According to patent US8304382B2, “Anti-inflammatory and anti-allergic cyclic peptides” (Cristalia Productos Quimicos Farmaceuticos Ltda., priority 2006, dated 2012):
# Bridge positions count the residues as written; N and C are the ends. Peptide text beside a SMILES is read from it.
# Key:
# [1] = target: T1, trypsin (Bos taurus, UniProt P00760); test: Inhibition of trypsin, determination of inhibition constants (Ki); type: biochemical
# T1 construct: gene PRSS1
# T1 sequence (P00760 24-246): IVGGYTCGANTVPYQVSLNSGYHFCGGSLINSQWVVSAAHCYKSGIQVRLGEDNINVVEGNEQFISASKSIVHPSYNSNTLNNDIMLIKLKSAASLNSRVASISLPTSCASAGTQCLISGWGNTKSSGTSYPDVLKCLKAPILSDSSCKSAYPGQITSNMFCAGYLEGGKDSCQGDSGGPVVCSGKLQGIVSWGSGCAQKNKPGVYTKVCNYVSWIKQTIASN
# Experimental: The substrate utilized was Abz-Phe-Arg-Ser-Ser-Arg-Gln-EDDnp (SEQ ID NO: 11), a fluorescent analog of bradykinin, purified by way of high pressure liquid chromatography, (HPLC) until purity greater than 95% (single peak) was achieved.
# The hydrolysis reactions were conducted using a Hitachi. F-2000 spectrofluorometer, with the excitation and emission slits set at 10 and 20 nm, and the excitation and emission wavelengths at 320 and 420 nm, respectively. The temperature of the reaction cuvette was maintained at 37° C. in a thermostatically controlled compartment.
# The enzymatic activity of trypsin (0.5-5 nM) was determined in 50 mM Tris-HCl buffer, pH 8.0, containing 20 mM NaCl at 37° C., with the addition of approximately 0.1-6.0 μM of the fluorescent substrates. The increase in fluorescence was monitored continually for 5 min in the spectrofluorometer. When necessary, the correction of the fluorescent reading was done using the empiric equation described by Araújo et. al., Biochemistry 25; 8519, 2000. Kinetic data were determined from the initial hydrolysis (consumption of substrate less than 10%) and calculations involving kinetic parameters (Km, Vmáx and kcat) were performed using the Michaelis-Menten equation furnished by the GRAFIT for Windows 3.0 program.
# To determine the inhibition kinetics of trypsin with the peptides of the present invention, three substrate concentrations were used: a) corresponding to half of the value of Km (0.8 μM); b) corresponding to the whole value of Km (1.6 μM); c) corresponding to slightly more than double the value of Km (3.5 μM). […] Incubation carried out at 37° C. Tris-HCl buffer, pH 8.0, containing 20 mM NaCl at 37° C. For characterization of enzymatic inhibition, a Lineweaver-Burk plot was employed (1/V vs 1/S), and the value of Ki was determined from the relation between the apparent inhibition constant (Ki(app)) and the value of Km for the substrate: Ki(app)=[I]/[(v0/vi)−1] and Ki=Ki(app)/[(Km/[S])+1] where; [I]=inhibitor concentration; (v0/vi)=ratio of the hydrolysis velocities in the absence and presence of inhibitor, respectively. Km/[S]=ratio between Km of the substrate and substrate concentration.
# [2] = tested on: recruitment of leukocytes in the peritoneal cavity; test: Prevention of peritonitis induced by LPS; type: in vivo, mice; settings: 24 h
# Experimental: Mice were injected intraperitoneally with 4 nmol or 40 nmol of the peptide identified by SEQ ID NO: 7 dissolved in 500 μL of sterile saline solution, 30 minutes prior to administering intraperitoneal injection of LPS (O55:BR 20 μg/mL, Sigma) diluted in 500 μL of sterile saline solution. Animals injected only with sterile saline were considered controls, 24 h after injection of LPS, the animals were sacrificed with a high dose of chloral hydrate to obtain the washing of the peritoneal cavity to count the number of cells (A), neutrophils (B) and macrophages (C). The material removed from the peritoneum was centrifuged for 10 minutes at 1500 rpm and 4° C., the supernatant was separated and frozen at −20° C. for future analyses, while the remaining material containing the cells was re-suspended in PBS 0.1% BSA. The total count was performed in a Neubauer chamber, For the differential count, an aliquot of the cellular suspension was placed on slides and centrifuged (Citospin), stained with Hema 3 and examined under the optical microscope, counting a total of 300 cells. The absolute number of each cellular population was obtained by multiplication of the percentages by the total number of cells found in the sample volume.
# [3] = tested on: leukocytes and eosinophils recruited to the alveolar space; test: Acute pulmonary asthma induced by ovalbumin, bronchoalveolar lavage cell count; type: in vivo, BALB/c mice
# Experimental: (§1) After the 14th day, the animals were submitted to 3 challenges per week with a 1% OVA aerosol, Immunized animals and challenged only with PBS (phosphate buffered saline) were considered controls. To induce chronic asthma, the animals were challenged 3 times a week during 3 consecutive weeks.
# (§2) For the aerosol challenge, the animals were placed in a closed plastic box adapted with an ultra-sonic nebulizer (US-800, ICEL) and exposed to inhalation of 2 mL of a 1% solution of ovalbumin (grade V, Sigma) in saline, over 20 minutes, 24 h after the last aerosol challenge, the animals were sacrificed with a high dose of chloral hydrate to obtain the peripheral blood, the Broncho-Alveolar Lavage (BAL) and the pulmonary tissue to count the total number of leukocytes and eosinophils.
# (§3) Groups of animals were treated with 4 nmol or 40 nmol of the peptide identified by SEQ ID NO: 7 intranasally and intraperitoneally 30 minutes before each challenge, and orally 1 hour before each challenge. The group of animals with chronic asthma was treated only with 4 nmol or 40 nmol of the peptide identified by SEQ ID NO: 7_intraperitoneally 30 minutes before each challenge.
# (§4) The aerial space was washed with three, 1 mL aliquots of HBSS (Hanks Balanced Salt Solution) EDTA (ethylenediaminetetraacetic acid). After collection, the BAL was immediately centrifuged at 800 rpm for 10 minutes, the supernatant discarded, and the cellular button was re-suspended in 1 mL of HBSS 0.1% BSA (bovine serum albumin) to count the cells. The total cells from the BAL were counted in a Neubauer chamber. Aliquots containing 5×10^5 cells were centrifuged on glass slides using a cytocentrifuge, for 5 minutes at 600 rpm. To determine the percentages of the different cellular populations, the slides were stained with Hema 3 and 300 cells were counted in randomly selected fields. The absolute number of each cellular population in the BAL was obtained by multiplication of the percentages by the total number of cells found in the sample volume.
# [4] = tested on: leukocytes and eosinophils recruited to the alveolar space; test: Chronic asthma induced by ovalbumin, bronchoalveolar lavage cell count; type: in vivo, BALB/c mice
# Experimental: as §1, §2, §3, §4
# [5] = tested on: leukocyte rolling in post-capillary venules of the cremaster muscle; settings: topical, LPS-induced rolling; FIG. 2 and 3
# [6] = 4 or 40 nmol i.p. 30 min before LPS, FIG. 4
# [7] = 4 nmol or 40 nmol intraperitoneally, FIG. 6
compound,measurement,setting,value
"CC[C@H](C)[C@H](N)C(=O)N1CCC[C@H]1C(=O)N[C@@H](CCCNC(=N)N)C(=O)N[C@H]1CSSC[C@@H](C(=O)O)NC(=O)[C@H](CCSC)NC(=O)[C@H](CCCCN)NC(=O)[C@H](C(C)C)NC(=O)CNC(=O)[C@@H]2CCCN2C(=O)[C@H](CCSC)NC(=O)[C@H](CCCCN)NC(=O)[C@H](CCCNC(=N)N)NC1=O [SEQ ID NO: 1, Ile1-Pro2-Arg3-Cys4-Arg5-Lys6-Met7-Pro8-Gly9-Val10-Lys11-Met12-Cys13] (H-IPRCRKMPGVKMC-OH; disulfide 4-13)",Ki,[1],22.5 nM
same,type of inhibition of trypsin,[1]; FIG. 1,"simple, competitive inhibition"
"CC[C@H](C)[C@@H]1NC(=O)[C@H]([C@@H](C)O)NC(=O)[C@@H](NC(=O)[C@H](CCC(N)=O)NC(=O)[C@H](CCC(=O)O)NC(=O)[C@@H](N)C(C)C)CSSC[C@@H](C(=O)O)NC(=O)[C@H](CC(=O)O)NC(=O)[C@H](CCCCN)NC(=O)[C@H](CCC(=O)O)NC(=O)[C@H](CC(=O)O)NC(=O)CNC(=O)[C@H]([C@@H](C)CC)NC1=O [SEQ ID NO: 2, Val1-Glu2-Gln3-Cys4-Thr5-Ile6-Ile7-Gly8-Asp9-Glu10-Lys11-Asp12-Cys13] (H-VEQCTIIGDEKDC-OH; disulfide 4-13)",Ki,[1],24 nM
"CC[C@H](C)[C@@H]1NC(=O)[C@H]([C@@H](C)O)NC(=O)[C@@H](NC(=O)[C@H](CCC(N)=O)NC(=O)[C@H](CCC(=O)O)NC(=O)[C@@H](N)C(C)C)CSSC[C@@H](C(=O)O)NC(=O)[C@H](CC(=O)O)NC(=O)[C@H](CCCCN)NC(=O)[C@H](C)NC(=O)[C@H](CC(=O)O)NC(=O)CNC(=O)[C@H]([C@@H](C)CC)NC1=O [SEQ ID NO: 3, Val1-Glu2-Gln3-Cys4-Thr5-Ile6-Ile7-Gly8-Asp9-Ala10-Lys11-Asp12-Cys13] (H-VEQCTIIGDAKDC-OH; disulfide 4-13)",Ki,[1],63.6 nM
"CC[C@H](C)[C@@H]1NC(=O)[C@H](CCC(=O)O)NC(=O)[C@H](CO)NC(=O)[C@@H](NC(=O)[C@H](CCC(N)=O)NC(=O)[C@H](CCC(N)=O)NC(=O)[C@@H](N)C(C)C)CSSC[C@@H](C(=O)O)NC(=O)[C@@H]2CCCN2C(=O)[C@H](CCCCN)NC(=O)[C@H](C)NC(=O)CNC(=O)[C@H](C)NC1=O [SEQ ID NO: 4, Val1-Gln2-Gln3-Cys4-Ser5-Glu6-Ile7-Ala8-Gly9-Ala10-Lys11-Pro12-Cys13] (H-VQQCSEIAGAKPC-OH; disulfide 4-13)",Ki,[1],42 nM
"CC[C@H](C)[C@@H]1NC(=O)[C@H](CCCCN)NC(=O)[C@H](CC(=O)O)NC(=O)[C@@H](NC(=O)[C@H](CCCNC(=N)N)NC(=O)[C@H](Cc2c[nH]cn2)NC(=O)[C@@H](N)CC(C)C)CSSC[C@@H](C(=O)O)NC(=O)[C@@H]2CCCN2C(=O)[C@H](CCCCN)NC(=O)[C@H](C)NC(=O)[C@H](CC(=O)O)NC(=O)[C@H](C)NC1=O [SEQ ID NO: 5, Leu1-His2-Arg3-Cys4-Asp5-Lys6-Ile7-Ala8-Asp9-Ala10-Lys11-Pro12-Cys13] (H-LHRCDKIADAKPC-OH; disulfide 4-13)",Ki,[1],44 nM
"CC[C@H](C)[C@H](N)C(=O)N1CCC[C@H]1C(=O)N[C@@H](CCCNC(=N)N)C(=O)N[C@H]1CSSC[C@@H](C(=O)O)NC(=O)[C@H](CCSC)NC(=O)[C@H](CCCCN)NC(=O)[C@H](C(C)C)NC(=O)CNC(=O)[C@@H]2CCCN2C(=O)[C@H](CCSC)NC(=O)[C@H](C)NC(=O)[C@H](CCCNC(=N)N)NC1=O [SEQ ID NO: 6, Ile1-Pro2-Arg3-Cys4-Arg5-Ala6-Met7-Pro8-Gly9-Val10-Lys11-Met12-Cys13] (H-IPRCRAMPGVKMC-OH; disulfide 4-13)",Ki,[1],24.2 nM
"CC[C@H](C)[C@H](N)C(=O)N1CCC[C@H]1C(=O)N[C@@H](CCCNC(=N)N)C(=O)N[C@H]1CSSC[C@@H](C(N)=O)NC(=O)[C@H](CCSC)NC(=O)[C@H](CCCCN)NC(=O)[C@H](C(C)C)NC(=O)CNC(=O)[C@@H]2CCCN2C(=O)[C@H](CCSC)NC(=O)[C@H](CCCCN)NC(=O)[C@H](CCCNC(=N)N)NC1=O [SEQ ID NO: 7, Ile1-Pro2-Arg3-Cys4-Arg5-Lys6-Met7-Pro8-Gly9-Val10-Lys11-Met12-Cys13-NH2] (H-IPRCRKMPGVKMC-NH2; disulfide 4-13)",prevention of the recruitment of leukocytes in the peritoneal cavity,"[2]; 4 nmol and 40 nmol i.p. 30 min before LPS, compared to the control",~50%
same,recruitment of macrophages in the peritoneal cavity,[2]; [6],prevented the recruitment
same,recruitment of neutrophils in the peritoneal cavity,[2]; [6],prevented the recruitment
same,effect on recruitment of cells to the lung compared with oral dexamethasone 0.3 mg/Kg,[3],similar
same,total number of leukocytes recruited to the alveolar space,"[3]; 4 nmol or 40 nmol, all routes (intranasal, intraperitoneal, oral), FIG. 5",provoked a decrease
same,eosinophils in the bronchoalveolar lavage,"[3]; 4 nmol or 40 nmol, all routes, FIG. 5",absence of eosinophils
same,Ki,[1],20 nM
same,effect on recruitment of cells to the lung compared with oral dexamethasone 0.3 mg/Kg,[4],similar
same,eosinophils in the bronchoalveolar lavage,[4]; [7],decrease in eosinophils
same,total number of leukocytes recruited to the alveolar space,[4]; [7],provoked a decrease
"CC[C@H](C)[C@H](NC(C)=O)C(=O)N1CCC[C@H]1C(=O)N[C@@H](CCCNC(=N)N)C(=O)N[C@H]1CSSC[C@@H](C(=O)O)NC(=O)[C@H](CCSC)NC(=O)[C@H](CCCCN)NC(=O)[C@H](C(C)C)NC(=O)CNC(=O)[C@@H]2CCCN2C(=O)[C@H](CCSC)NC(=O)[C@H](CCCCN)NC(=O)[C@H](CCCNC(=N)N)NC1=O [SEQ ID NO: 8, Ac-Ile1-Pro2-Arg3-Cys4-Arg5-Lys6-Met7-Pro8-Gly9-Val10-Lys11-Met12-Cys13] (Ac-IPRCRKMPGVKMC-OH; disulfide 4-13)",Ki,[1],24.8 nM
"CC[C@H](C)[C@H](NC(C)=O)C(=O)N1CCC[C@H]1C(=O)N[C@@H](CCCNC(=N)N)C(=O)N[C@H]1CSSC[C@@H](C(N)=O)NC(=O)[C@H](CCSC)NC(=O)[C@H](CCCCN)NC(=O)[C@H](C(C)C)NC(=O)CNC(=O)[C@@H]2CCCN2C(=O)[C@H](CCSC)NC(=O)[C@H](CCCCN)NC(=O)[C@H](CCCNC(=N)N)NC1=O [SEQ ID NO: 9, Ac-Ile1-Pro2-Arg3-Cys4-Arg5-Lys6-Met7-Pro8-Gly9-Val10-Lys11-Met12-Cys13-NH2] (Ac-IPRCRKMPGVKMC-NH2; disulfide 4-13)",Ki,[1],21.8 nM
Cys1-Arg2-Lys3-Met4-Pro5-Gly6-Val7-Lys8-Met9-Cys10 [SEQ ID NO: 12],inhibition of leukocyte rolling (in words),[5],maintained inhibitory activity
